{"source": "patent US20210395694A1", "about": "“METHOD FOR PROMOTING PRODUCTION OF EXOSOMES AND/OR EXTRACELLULAR VESICLES” (ExoCoBio Inc., priority 2019, published 2021)", "key": {"[1]": {"test_system": "Human adipose-derived stem cells", "assay": "Exosome CD63 content by flow cytometry (PE MFI against a human CD63 standard curve)", "format": "cell-based", "details": "CD63 content per mL; compared to the untreated control group; FIG. 3", "procedure": "Human adipose-derived stem cells were suspended in a-MEM culture medium containing 10% fetal bovine serum (FBS), 100 units/mL penicillin and 100 μg/mL streptomycin, and then seeded into a 6-well plate at a density of 6,000 cells/cm^2 and cultured in an incubator at 37° C. under 5% CO2. For ascorbic acid-treated groups, 24 hours after seeding, ascorbic acid was added to the culture medium at a concentration of 10 μg/mL, 30 μg/mL and 100 μg/mL, respectively.\nIn all of the ascorbic acid-treated groups and the untreated group, when the adipose-derived stem cells reached a confluency of 80% or more, the culture medium was replaced with α-MEM medium containing 100 units/mL penicillin and 100 μg/mL streptomycin (hereinafter referred to as “serum-free medium” or “SFM”), or α-MEM medium containing 2% FBS from which FBS-derived exosomes and extracellular vesicles have been removed, 100 units/mL penicillin and 100 μg/mL streptomycin (hereinafter referred to as “extracellular vesicles-depleted medium” or “EDM”). In the ascorbic acid-treated groups, ascorbic acid was added to each of the serum-free medium and the extracellular vesicles-depleted medium at a concentration of 10 μg/mL, 30 μg/mL and 100 μg/mL, respectively. […] After completion of recovery of the conditioned medium, the cells were counted using a cell counter. […]"}, "[2]": {"test_system": "Human adipose-derived stem cells", "assay": "Nanoparticle tracking analysis (NTA) of exosomes isolated from conditioned medium of stem cells cultured with ascorbic acid", "format": "cell-based", "procedure": "Human adipose-derived stem cells were suspended in a-MEM culture medium containing 10% fetal bovine serum (FBS), 100 units/mL penicillin and 100 μg/mL streptomycin, and then seeded into a 6-well plate at a density of 6,000 cells/cm^2 and cultured in an incubator at 37° C. under 5% CO2. For ascorbic acid-treated groups, 24 hours after seeding, ascorbic acid was added to the culture medium at a concentration of 10 μg/mL, 30 μg/mL and 100 μg/mL, respectively. In all of the ascorbic acid-treated groups and the untreated group, when the adipose-derived stem cells reached a confluency of 80% or more, the culture medium was replaced with α-MEM medium containing 100 units/mL penicillin and 100 μg/mL streptomycin (hereinafter referred to as “serum-free medium” or “SFM”), or α-MEM medium containing 2% FBS from which FBS-derived exosomes and extracellular vesicles have been removed, 100 units/mL penicillin and 100 μg/mL streptomycin (hereinafter referred to as “extracellular vesicles-depleted medium” or “EDM”). […] After completion of recovery of the conditioned medium, the cells were counted using a cell counter. […] The particle size and concentration of the isolated exosomes were measured by nanoparticle tracking analysis (NTA) instrument (purchased from Malvern)."}}}
{"smiles": "O=C1O[C@H]([C@@H](O)CO)C(O)=C1O", "note": "[ascorbic acid]", "values": [{"measurement": "content of the exosomes (i.e., the content of CD63)", "setting": "[1]", "value": "remarkably increased"}, {"measurement": "productivity (i.e., the number of exosome particles per mL)", "setting": "[2]; compared with the control group not treated with ascorbic acid, FIG. 2", "value": "increased by approximately four times or more"}, {"measurement": "particle size distribution of the exosomes", "setting": "[2]; stem cells pre-treated and cultured in medium containing ascorbic acid vs medium not containing ascorbic acid, FIG. 1 (0, 30, 100 μg/mL)", "value": "more uniform particle size distribution"}]}
